Test results published in ChEMBL document CHEMBL1201862, “PubChem BioAssay data set” (2004).
Activity calls are given as the source filed them.

Columns and labels:
[1] = molecular target: Disintegrin and metalloproteinase domain-containing protein 17 (Homo sapiens, UniProt P78536); test: exosite inhibitors of ADAM17, dose response, biochemical (AID 743260)
[2] = inhibition of ADAM10 peptide cleavage – biochemical, FRET peptide substrate, recombinant human ADAM10, selectivity assay for ADAM17 exosite inhibitor project, dose response (AID 743259);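 note: ADAM10 enzyme cleaving a FRET peptide substrate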
[3] = molecular target: Beta-galactosidase (Escherichia coli, UniProt Q8VNN2); test: Dose response counterscreen for EBI2 assay utilizing the enzyme, b-galactosidase.; type: functional
Beta-galactosidase, sequence (Q8VNN2 whole entry): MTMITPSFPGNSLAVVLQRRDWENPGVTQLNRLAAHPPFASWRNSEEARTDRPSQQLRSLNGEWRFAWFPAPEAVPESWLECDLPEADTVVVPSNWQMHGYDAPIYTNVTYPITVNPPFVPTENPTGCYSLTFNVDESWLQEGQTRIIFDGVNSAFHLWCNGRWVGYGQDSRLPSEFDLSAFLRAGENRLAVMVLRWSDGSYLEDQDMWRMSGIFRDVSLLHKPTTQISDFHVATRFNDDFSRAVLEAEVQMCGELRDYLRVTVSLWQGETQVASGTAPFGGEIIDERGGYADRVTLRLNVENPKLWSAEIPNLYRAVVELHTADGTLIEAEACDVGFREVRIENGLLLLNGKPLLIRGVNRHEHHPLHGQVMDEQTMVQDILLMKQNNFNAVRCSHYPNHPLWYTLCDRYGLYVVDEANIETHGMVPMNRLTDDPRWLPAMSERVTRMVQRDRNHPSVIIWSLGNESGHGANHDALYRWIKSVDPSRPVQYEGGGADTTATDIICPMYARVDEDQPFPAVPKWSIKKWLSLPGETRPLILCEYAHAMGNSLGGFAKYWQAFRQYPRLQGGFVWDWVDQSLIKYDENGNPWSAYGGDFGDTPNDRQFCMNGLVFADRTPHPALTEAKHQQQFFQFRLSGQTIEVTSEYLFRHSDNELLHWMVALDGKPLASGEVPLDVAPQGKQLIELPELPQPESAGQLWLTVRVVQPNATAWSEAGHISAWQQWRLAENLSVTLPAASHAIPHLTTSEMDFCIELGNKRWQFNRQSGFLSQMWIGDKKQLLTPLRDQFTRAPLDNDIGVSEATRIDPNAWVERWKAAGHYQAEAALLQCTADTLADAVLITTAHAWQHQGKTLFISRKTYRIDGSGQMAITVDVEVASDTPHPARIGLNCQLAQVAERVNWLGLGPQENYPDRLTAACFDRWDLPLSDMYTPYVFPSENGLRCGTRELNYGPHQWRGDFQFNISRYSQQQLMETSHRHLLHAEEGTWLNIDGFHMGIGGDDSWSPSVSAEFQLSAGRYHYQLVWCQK

[4] = Vero cell cytotoxicity, cytotoxicity control for M. tuberculosis inhibitor project, purified and synthesized samples, set 3 (AID 504684); type: functional
[5] = A Cell Based Secondary Assay to Explore Cytotoxicity in THP-1 Cells of Compounds that Modulate Mycobacterium tuberculosis in Media Containing Glycerol versus Media without Glycerol (2).; type: functional
[6] = Counterscreen for […] of the human trace amine associated receptor 1 (TAAR1): Fluorescence-based cell-based high throughput dose response assay to identify nonselective Ga16 agonists.; type: functional
[7] = molecular target: T1, Trace amine-associated receptor 1 (Homo sapiens, UniProt Q96RJ0); test: Fluorescence-based cell-based high throughput dose response assay to identify antagonists of the human trace amine associated receptor 1 (TAAR1).; type: functional
T1 sequence (Q96RJ0 whole entry): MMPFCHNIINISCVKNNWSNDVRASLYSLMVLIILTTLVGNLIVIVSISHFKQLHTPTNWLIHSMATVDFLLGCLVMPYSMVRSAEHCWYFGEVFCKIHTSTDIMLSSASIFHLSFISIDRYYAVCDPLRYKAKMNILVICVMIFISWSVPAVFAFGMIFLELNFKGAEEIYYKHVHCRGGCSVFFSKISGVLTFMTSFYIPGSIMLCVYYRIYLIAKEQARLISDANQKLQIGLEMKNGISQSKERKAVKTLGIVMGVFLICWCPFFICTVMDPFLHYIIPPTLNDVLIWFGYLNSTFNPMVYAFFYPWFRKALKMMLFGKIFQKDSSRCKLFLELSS

[8] = Counterscreen for antagonists of the human trace amine associated receptor 1 (hTAAR1): Fluorescence-based cell-based high throughput dose response assay to identify nonselective Ga16 antagonists.; type: functional
[9] = molecular target: T1, Trace amine-associated receptor 1; test: Counterscreen for antagonists of the human trace amine associated receptor 1 (hTAAR1): Fluorescence-based cell-based high throughput dose response assay to identify TAAR1 Agonists.; type: functional
[10] = molecular target: Albumin (Bos taurus, UniProt P02769); test: Counterscreen for inhibitors of T-cell receptor (TCR)-CD3 interaction: Fluorescence-based biochemical high throughput dose response assay to identify inhibitors of T-cell receptor (TCR)-CD3 interaction using a TAMRA-labeled BSA probe.; type: functional
Albumin, sequence (P02769 whole entry): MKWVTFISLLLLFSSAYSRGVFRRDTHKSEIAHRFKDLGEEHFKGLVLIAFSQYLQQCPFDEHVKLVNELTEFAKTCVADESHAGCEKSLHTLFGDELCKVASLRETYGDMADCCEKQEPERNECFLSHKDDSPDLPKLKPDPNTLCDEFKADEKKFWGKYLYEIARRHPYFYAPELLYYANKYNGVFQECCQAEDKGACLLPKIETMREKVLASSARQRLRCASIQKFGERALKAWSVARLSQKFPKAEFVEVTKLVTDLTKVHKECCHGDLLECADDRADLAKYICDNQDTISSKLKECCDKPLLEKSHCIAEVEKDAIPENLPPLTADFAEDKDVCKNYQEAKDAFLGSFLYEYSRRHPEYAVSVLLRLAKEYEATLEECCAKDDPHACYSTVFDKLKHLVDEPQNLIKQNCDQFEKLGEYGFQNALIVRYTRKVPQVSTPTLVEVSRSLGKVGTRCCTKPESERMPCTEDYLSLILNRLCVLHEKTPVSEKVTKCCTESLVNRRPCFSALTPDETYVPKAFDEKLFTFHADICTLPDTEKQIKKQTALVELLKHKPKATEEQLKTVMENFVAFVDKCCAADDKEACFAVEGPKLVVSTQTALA

[11] = HGIII-sPLA2 enzyme inhibition potency – biochemical, QFRET, IC50, dose response (AID 743457);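 note: green fluorescence rise as the enzyme cleaves BODIPY PC-A2 in liposomes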
[12] = molecular target: Glucose-6-phosphate 1-dehydrogenase (Homo sapiens, UniProt P11413); test: inhibition of Homo sapiens G6PD, dose series – biochemical, fluorescence, selectivity assay for P. falciparum G6PD inhibitor project, dose response (AID 504792); type: functional
Glucose-6-phosphate 1-dehydrogenase, sequence (P11413 whole entry): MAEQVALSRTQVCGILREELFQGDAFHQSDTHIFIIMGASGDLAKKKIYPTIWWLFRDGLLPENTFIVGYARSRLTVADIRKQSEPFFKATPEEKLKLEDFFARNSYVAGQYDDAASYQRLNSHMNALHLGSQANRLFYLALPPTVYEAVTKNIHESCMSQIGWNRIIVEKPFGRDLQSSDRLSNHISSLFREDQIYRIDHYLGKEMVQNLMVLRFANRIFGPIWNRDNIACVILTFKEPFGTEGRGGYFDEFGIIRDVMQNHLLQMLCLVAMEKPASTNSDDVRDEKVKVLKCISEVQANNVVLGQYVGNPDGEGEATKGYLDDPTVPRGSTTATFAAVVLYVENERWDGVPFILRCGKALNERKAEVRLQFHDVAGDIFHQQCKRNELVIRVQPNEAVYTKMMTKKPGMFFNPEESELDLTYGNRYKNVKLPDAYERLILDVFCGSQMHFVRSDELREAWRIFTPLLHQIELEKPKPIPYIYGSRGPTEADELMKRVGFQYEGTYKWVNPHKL

[13] = Counterscreen for activators of the function of SWI/SNF related, matrix associated, actin dependent regulator of chromatin, subfamily a, member 2 (SMARCA2, BRM): Luminescence-based cell-based high throughput dose response assay to identify non-selective compounds using the VP16 reporter assay.; type: functional
[14] = molecular target: SWI/SNF-related matrix-associated actin-dependent regulator of chromatin subfamily A member 2 (Homo sapiens, UniProt P51531); test: Luminescence-based cell-based high throughput dose response assay to identify activators of the function of SWI/SNF related, matrix associated, actin dependent regulator of chromatin, subfamily a, member 2 (SMARCA2, BRM).; type: functional
SWI/SNF-related matrix-associated actin-dependent regulator of chromatin subfamily A member 2, sequence (P51531 whole entry): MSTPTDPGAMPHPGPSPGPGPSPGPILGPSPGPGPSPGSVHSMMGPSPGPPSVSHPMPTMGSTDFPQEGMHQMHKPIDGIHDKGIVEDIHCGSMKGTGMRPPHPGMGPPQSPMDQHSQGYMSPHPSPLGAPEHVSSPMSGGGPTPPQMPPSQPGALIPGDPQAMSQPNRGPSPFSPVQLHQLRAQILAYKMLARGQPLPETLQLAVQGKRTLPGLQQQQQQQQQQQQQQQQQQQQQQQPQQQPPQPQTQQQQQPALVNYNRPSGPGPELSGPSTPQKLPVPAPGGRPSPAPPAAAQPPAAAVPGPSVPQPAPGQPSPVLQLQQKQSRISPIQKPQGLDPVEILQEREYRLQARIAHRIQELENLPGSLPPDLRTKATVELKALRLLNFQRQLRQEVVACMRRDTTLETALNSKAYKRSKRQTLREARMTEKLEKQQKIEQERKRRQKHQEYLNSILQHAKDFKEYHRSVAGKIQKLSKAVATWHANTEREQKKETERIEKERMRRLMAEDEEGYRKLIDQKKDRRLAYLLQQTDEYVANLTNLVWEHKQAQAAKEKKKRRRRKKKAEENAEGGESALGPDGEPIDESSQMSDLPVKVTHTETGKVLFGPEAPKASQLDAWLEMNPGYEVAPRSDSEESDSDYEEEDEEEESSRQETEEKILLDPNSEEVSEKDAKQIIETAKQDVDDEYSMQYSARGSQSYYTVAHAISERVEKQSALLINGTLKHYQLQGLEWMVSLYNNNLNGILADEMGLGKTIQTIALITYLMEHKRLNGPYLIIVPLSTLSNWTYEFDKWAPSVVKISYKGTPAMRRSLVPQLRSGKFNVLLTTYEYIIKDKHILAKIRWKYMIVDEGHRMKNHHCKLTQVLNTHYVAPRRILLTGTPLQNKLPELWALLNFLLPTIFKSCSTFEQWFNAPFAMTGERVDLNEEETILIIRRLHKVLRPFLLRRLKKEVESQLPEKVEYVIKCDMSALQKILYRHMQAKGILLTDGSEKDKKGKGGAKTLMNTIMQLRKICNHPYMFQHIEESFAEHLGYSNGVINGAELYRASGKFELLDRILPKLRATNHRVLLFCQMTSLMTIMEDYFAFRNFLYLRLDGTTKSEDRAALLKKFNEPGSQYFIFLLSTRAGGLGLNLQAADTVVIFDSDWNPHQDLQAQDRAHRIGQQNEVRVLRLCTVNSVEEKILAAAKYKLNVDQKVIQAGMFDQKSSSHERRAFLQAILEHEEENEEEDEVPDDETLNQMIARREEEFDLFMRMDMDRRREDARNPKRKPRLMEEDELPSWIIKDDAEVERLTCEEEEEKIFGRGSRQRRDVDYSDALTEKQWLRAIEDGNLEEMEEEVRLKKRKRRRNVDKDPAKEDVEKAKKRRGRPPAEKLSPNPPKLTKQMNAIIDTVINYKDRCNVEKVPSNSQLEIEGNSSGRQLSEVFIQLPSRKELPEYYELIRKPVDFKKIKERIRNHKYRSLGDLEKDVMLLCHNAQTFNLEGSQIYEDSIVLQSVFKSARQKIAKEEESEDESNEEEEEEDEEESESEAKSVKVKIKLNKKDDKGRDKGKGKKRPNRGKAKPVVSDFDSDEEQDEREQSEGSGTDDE

[15] = molecular target: T2, Hexokinase (Trypanosoma brucei, UniProt Q38C41); test: Confirmation assay for inhibitors of Trypanosoma brucei hexokinase 1-Analogue-first series. [Related pubchem assays (depositor defined):AID1430, AID1632, AID2516, AID2560, AID2579, AID2600, AID449725, AID492951]; type: functional
T2 sequence (Q38C41 whole entry): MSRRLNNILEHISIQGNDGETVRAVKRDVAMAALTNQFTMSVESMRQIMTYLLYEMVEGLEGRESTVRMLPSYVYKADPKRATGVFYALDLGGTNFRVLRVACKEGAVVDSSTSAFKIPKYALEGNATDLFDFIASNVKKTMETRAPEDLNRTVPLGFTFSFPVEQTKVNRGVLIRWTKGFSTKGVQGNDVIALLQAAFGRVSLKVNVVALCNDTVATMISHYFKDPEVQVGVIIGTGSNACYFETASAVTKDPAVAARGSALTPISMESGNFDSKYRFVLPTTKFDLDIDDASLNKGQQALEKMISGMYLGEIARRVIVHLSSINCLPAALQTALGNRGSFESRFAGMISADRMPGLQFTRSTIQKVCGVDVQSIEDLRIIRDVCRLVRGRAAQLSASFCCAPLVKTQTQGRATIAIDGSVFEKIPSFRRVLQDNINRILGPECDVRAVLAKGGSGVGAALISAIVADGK

[16] = off-target signal loss in HeLa-CEM21 co-culture – HeLa F-luc CTL cells, cherry-picked, counter-screen for HIV-1 Env fusion inhibitor project, dose response (AID 652040); type: functional, cell-based;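 note: potency for signal decrease marking cytotoxic or nonspecific inhibition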
[17] = blockers of HIV-1 envelope-mediated cell-cell fusion – cherry-pick, dose response (AID 652057); type: functional, cell-based
[18] = viability loss in CEM21 cells – cell-based, CellTiter-Glo luminescence, cherry-picked, cytotoxicity control for viral fusion inhibitor project, dose response (AID 652042); type: functional;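 note: potency for signal decrease meaning cytotoxicity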
[19] = HIV-1 AD8 envelope cell-cell fusion blockers – cherry-pick, dose response (AID 652062); type: functional, cell-based;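 note: luciferase signal from cell-cell fusion driven by HIV-1 clade B AD8 Env; potency is for inhibitors of fusion seen as a drop in luminescence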
[20] = blockers of HIV-1 ZM109 envelope-driven cell-cell fusion – HeLa effector, CEM target cells, luciferase, cherry-pick, dose response (AID 652058); type: functional, cell-based;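 note: luciferase signal from HIV-1 Env mediated cell-cell fusion of effector and target cells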
[21] = molecular target: T3, Mitochondrial peptide methionine sulfoxide reductase (Bos taurus, UniProt P54149); test: Absorbance-based biochemical high throughput dose response assay for activators of Methionine sulfoxide reductase A (MsrA).; type: functional
T3 sequence (P54149 whole entry): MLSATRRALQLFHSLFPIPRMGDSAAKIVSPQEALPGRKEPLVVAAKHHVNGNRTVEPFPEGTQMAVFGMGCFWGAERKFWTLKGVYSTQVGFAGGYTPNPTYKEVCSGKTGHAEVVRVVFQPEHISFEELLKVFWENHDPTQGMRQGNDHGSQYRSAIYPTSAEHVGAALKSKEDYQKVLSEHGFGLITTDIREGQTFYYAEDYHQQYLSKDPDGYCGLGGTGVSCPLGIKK

[22] = tested on: Vero; test: viability of Vero cells under compound – cytotoxicity control for flavivirus capping enzyme inhibitors (AID 588742); type: functional; settings: Chlorocebus sabaeus
[23] = molecular target: Tyrosyl-DNA phosphodiesterase 2 (Homo sapiens, UniProt O95551); test: potency against TDP2 phosphodiesterase activity – biochemical, epi absorbance, IC50, dose response (AID 743297)
[24] = molecular target: Nonstructural protein 1 (Influenza A virus, UniProt Q194T2); type: functional, Influenza A virus (A/California/07/2009(H1N1))
[25] = molecular target: T4, Caspase-6 (Homo sapiens, UniProt P55212); test: inhibition of CASP6 peptide cleavage – biochemical, VEID-R110 fluorescence, cherry-pick, dose response (AID 720632)
T4 sequence (P55212 whole entry): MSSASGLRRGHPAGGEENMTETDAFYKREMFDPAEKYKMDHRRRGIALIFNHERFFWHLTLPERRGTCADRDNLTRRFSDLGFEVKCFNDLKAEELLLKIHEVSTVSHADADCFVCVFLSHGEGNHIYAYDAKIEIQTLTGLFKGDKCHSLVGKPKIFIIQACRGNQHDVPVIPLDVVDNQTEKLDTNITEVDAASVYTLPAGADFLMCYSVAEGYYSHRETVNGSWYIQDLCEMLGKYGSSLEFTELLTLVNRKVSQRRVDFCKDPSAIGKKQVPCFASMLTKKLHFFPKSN

[26] = molecular target: Genome polyprotein (dengue virus type 2, UniProt P29990); test: flavivirus cap methylation enzyme inhibition – biochemical, confirmation dose response, primary screen (AID 588689); type: functional
[27] = molecular target: T5, Rac GTPase-activating protein 1 (Homo sapiens, UniProt Q9H0H5); test: blockers of MgcRacGAP-driven Rac1 GTP hydrolysis – biochemical, ADP Hunter fluorescence, primary and confirmatory, confirmation (AID 624330); type: functional
T5 sequence (Q9H0H5 whole entry): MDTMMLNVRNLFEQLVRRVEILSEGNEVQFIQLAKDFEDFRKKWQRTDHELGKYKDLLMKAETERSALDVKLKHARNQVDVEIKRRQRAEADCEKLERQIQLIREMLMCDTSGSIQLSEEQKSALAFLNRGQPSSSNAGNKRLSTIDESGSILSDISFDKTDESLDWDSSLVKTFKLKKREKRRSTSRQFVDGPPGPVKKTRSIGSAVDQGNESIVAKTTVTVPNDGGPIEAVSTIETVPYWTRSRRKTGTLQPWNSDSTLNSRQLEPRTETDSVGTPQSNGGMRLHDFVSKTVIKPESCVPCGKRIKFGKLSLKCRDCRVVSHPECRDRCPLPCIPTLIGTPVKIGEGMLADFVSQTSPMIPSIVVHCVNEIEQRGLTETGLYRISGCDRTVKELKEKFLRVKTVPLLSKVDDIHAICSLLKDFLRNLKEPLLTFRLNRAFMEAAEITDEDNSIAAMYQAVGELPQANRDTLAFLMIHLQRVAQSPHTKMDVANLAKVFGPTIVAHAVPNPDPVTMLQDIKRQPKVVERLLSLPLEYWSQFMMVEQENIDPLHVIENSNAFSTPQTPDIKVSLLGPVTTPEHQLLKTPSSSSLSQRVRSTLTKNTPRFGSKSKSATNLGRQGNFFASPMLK

[28] = molecular target: T6, Interleukin-8 (Homo sapiens, UniProt P10145); test: Dose Response confirmation of uHTS small molecule hits for cystic fibrosis induced NFkb Inhibitors in a PAF-induced IL8 counterscreen.; type: functional; settings: read-out: IC50_Mean
T6 sequence (P10145 whole entry): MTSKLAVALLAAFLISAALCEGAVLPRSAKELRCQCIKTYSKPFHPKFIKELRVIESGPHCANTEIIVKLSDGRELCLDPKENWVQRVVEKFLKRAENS

[29] = molecular target: T6, Interleukin-8; test: Dose Response confirmation of uHTS small molecule hits for cystic fibrosis induced NFkb Inhibitors in a TNFa-induced IL8 counterscreen.; type: functional; settings: read-out: IC50_Mean
[30] = general cell-killing toxicity readout – plate reader, dry powder samples, cytotoxicity control for PAX8 inhibitor project, dose response (AID 743021); type: functional, cell-based
[31] = molecular target: Paired box protein Pax-8 (Homo sapiens, UniProt Q06710); test: PAX8 transcriptional activity inhibition in RMG-I – RMG-I cells, luciferase, cherry-pick, dose response (AID 687027); type: functional, cell-based;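 note: luciferase reporter driven by Pax8 target thyroperoxidase promoter measured by SteadyGlo luminescence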
Paired box protein Pax-8, sequence (Q06710 whole entry): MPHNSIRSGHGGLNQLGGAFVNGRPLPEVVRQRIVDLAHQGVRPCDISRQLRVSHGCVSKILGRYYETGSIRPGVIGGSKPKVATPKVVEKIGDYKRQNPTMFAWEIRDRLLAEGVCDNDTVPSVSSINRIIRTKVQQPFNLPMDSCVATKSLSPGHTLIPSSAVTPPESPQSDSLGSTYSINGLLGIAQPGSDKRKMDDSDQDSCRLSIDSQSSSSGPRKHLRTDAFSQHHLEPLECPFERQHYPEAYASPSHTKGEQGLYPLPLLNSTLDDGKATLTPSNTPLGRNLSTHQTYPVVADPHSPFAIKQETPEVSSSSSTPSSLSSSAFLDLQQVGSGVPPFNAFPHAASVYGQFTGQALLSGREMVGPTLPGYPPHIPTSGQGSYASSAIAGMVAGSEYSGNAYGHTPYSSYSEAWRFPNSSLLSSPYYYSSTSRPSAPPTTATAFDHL

[32] = general mammalian cell viability loss – inhibitor set, cherry-pick, set 2, cytotoxicity control for miR-122 modulator project, dose response (AID 720697); type: functional, cell-based
[33] = general mammalian cell viability loss – activator set, cherry-pick, cytotoxicity control for miR-122 modulator project, dose response (AID 720690); type: functional, cell-based;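 note: HEK293T human cells scored for general mammalian cytotoxicity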

Disintegrin and metalloproteinase domain-containing protein 17, sequence (P78536 whole entry, the tested form may be a part): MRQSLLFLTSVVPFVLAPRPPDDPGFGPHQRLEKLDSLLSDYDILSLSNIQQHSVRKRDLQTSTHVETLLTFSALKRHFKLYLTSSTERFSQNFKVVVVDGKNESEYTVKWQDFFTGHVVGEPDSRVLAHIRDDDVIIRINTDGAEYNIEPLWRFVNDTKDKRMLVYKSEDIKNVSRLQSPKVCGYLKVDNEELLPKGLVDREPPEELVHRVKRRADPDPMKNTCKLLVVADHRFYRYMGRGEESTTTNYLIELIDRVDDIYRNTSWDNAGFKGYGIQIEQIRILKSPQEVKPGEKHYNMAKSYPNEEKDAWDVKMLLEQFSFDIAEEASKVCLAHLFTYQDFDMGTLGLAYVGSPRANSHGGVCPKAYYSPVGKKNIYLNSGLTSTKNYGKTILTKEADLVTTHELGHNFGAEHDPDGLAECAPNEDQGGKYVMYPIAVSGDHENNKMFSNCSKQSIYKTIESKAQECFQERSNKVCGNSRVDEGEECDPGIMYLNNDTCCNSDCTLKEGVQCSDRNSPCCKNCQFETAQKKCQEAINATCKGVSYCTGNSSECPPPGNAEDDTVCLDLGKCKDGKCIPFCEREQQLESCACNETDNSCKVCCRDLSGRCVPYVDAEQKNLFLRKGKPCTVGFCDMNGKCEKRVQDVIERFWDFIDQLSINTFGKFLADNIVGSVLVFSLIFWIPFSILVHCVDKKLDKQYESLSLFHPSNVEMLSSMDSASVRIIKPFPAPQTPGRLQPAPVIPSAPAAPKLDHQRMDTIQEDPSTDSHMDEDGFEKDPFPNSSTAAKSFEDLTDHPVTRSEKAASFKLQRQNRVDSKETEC

COc1ccc(OC)c(-c2csc(NC(=O)COC(=O)C3(C)CC3(Cl)Cl)n2)c1 (centres undefined)
IC50 [1]: > 69.5 µM (inactive)
IC50 [2]: 13.1 µM (inactive)

CCOC(=O)C1=C(Nc2ccc(Cl)cc2)S/C(=C\c2ccccn2)C1=O
IC50 [3]: > 80 µM (inactive)

O=C(/C=C/c1ccccc1)N1CCN(CCN2C(=O)c3cccc4cccc(c34)C2=O)CC1
CC50 [4]: > 100 µM (active)
CC50 [5]: 60.2 µM (active)
IC50 [3]: > 80 µM (inactive)

COc1ccc2oc(C(=O)OCC(=O)NCc3ccccc3OC)c(C)c2c1
EC50 [6]: > 29.9 µM (inactive)
IC50 [7]: 6.65 µM (active)
IC50 [8]: > 29.9 µM (inactive)
EC50 [9]: 7.16 µM (active)

O=C(NN=Cc1sc(=O)[nH]c1-[n+]1ccc2ccccc2c1)c1ccccc1[O-]
IC50 [10]: > 94.1 µM (inactive)

NC(=O)CCC1NC(=S)N(Cc2ccccc2)C1=O (centres undefined)
IC50 [10]: > 94.1 µM (inactive)

O=C(NNC(=S)Nc1ccccc1Cl)c1ccccc1Cl
IC50 [11]: > 122 µM (inactive)

Cn1sc2ccccc2c1=O
IC50 [12]: 37.3 µM (inactive)
EC50 [13]: > 91.2 µM (inactive)
EC50 [14]: > 91.2 µM (inactive)
IC50 [15]: > 25 µM (inactive)

OCCCn1c(CCNc2nc(-c3ccc(F)cc3)cs2)nc2cc(C(F)(F)F)ccc21
AC50 [16]: 43.1 µM (active)
AC50 [17]: 8.76 µM (active)
AC50 [18]: 51.5 µM (active)
AC50 [19]: 16 µM (active)
AC50 [20]: 5.8 µM (active)

C[n+]1c(-c2ccccc2)cc2c(=Cc3ccc([N+](=O)[O-])cc3)c3ccccc3n21
IC50 [12]: > 80 µM (inactive)
EC50 [21]: > 104 µM (inactive)
CC50 [22]: 34.8 µM (active)
IC50 [23]: > 128 µM (inactive)
IC50 [24]: 9.36 µM (active)
AC50 [25]: 0.309 µM (active)
IC50 [26]: 14.2 µM (active)
IC50 [27]: 31.5 µM (active)

C=C1C(=O)[C@]23C[C@H]1CCC2[C@@]1(C)C(C[C@@H]3O)[C@](C)(C(=O)O)CC[C@@H]1O (some centres undefined)
EC50 [13]: > 91.3 µM (inactive)
IC50 [28]: 0.817 µM (active)
IC50 [29]: 39.7 µM (inactive)
EC50 [14]: > 10.1 µM (inactive)

Cc1cccc(C(C#N)c2nc3ccccc3nc2C(F)(F)F)c1 (centres undefined)
EC50 [6]: > 29.9 µM (inactive)
IC50 [7]: 1.58 µM (active)
IC50 [8]: > 29.9 µM (inactive)
EC50 [9]: > 29.9 µM (inactive)

Brc1ccc2nc(-c3ccc(CN4CCC(c5nc6ccccc6[nH]5)CC4)cc3)c(-c3ccccc3)nc2c1
AC50 [30]: 37.8 µM (active)
AC50 [31]: 9.03 µM (active)

CN1C(=O)c2cc(NC(=O)c3ccc(C(F)(F)F)cc3)ccc2OC[C@H]2O[C@H](CC(=O)NC3Cc4ccccc4C3)CC[C@@H]21
AC50 [32]: 0.324 µM (active)
AC50 [33]: 0.335 µM (active)

Cc1ccc(OCCOCCOc2ccc(Br)cc2/C=N\NC(=O)c2ccncc2)cc1
IC50 [1]: > 69.5 µM (inactive)
IC50 [2]: > 69.5 µM (inactive)
